Test results published in US20260176265A1 (Cancer Research Technology Limited, priority 2022, published 2026).

Key:
[1] = target: T1, Phospho-EGFR (Tyr1068) in H1975 cells (Homo sapiens, UniProt P00533, L858R/T790M); assay: HTRF pEGFR/total EGFR assay in H1975 cells; type: cell-based; details: compound 3 hours, ratio pEGFR/total EGFR
T1 construct: host or cells: H1975
Description: H1975 cells (ATCC CRL-5908) were plated at 20,000 cells per well in 96 well plates and placed at 37° C. 5% CO2. Once adhered (after 24h) cells were treated with compounds dissolved in DMSO at a final concentration of 0.1% DMSO in media. Compounds were diluted in media then added to cells for 3 hours in duplicate. Compound and media were removed from the cells, then 50ul of HTRF lysis buffer is added (lysis buffer was diluted from 4× stock to 1× in DI water, with 1% blocking agent also added). Cells were lysed on a plate shaker (2000 rpm) for 30 minutes at room temperature. pEGFR expression was monitored using the Cisbio Phospho-EGFR (Tyri068) cellular kit (64EG1 PEH). Total EGFR expression was monitored using the Cisbio Total EGFR cellular kit (64NG1 PEH) as per manufacturer's instructions. Fluorescence emission was read at two different wavelengths (665 nm and 620 nm) on a PheraStar. Results were calculated as ratio of pEGFR/total EGFR and then percentage of 0 uM control.

[2] = target: CtermHisTag-mEGFR Triple Mutant - C797S, L858R, T790M (Homo sapiens, UniProt P00533, C797S/L858R/T790M); assay: TR-FRET probe displacement assay, EGFR triple mutant; type: binding; details: T790M 1.25 nM, probe 100 nM, 30 mins room temperature
Description: (§1) Compounds (dissolved to 100 mM in DMSO) were dispensed into black low volume 384 well assay plates (Corning) over a final concentration range of 100000, 30000, 10000, 3000, 1000, 300, 100, 30, 10, and 3 nM using an Echo 550 (Labcyte). Positive control compound and DMSO as a negative control were dispensed into the first and last well, respectively. […]. Plates were read using a PheraStar FS (BMG Labtech) at Ex337 nm Ex490/520 nm. The data were analysed using Graphpad Prism/Dotmatics Studies Software. Assays conducted in technical replicate and repeated as a biological duplicate.

[3] = target: T2, Phospho-EGFR (Tyr1068) in A431 cells (Homo sapiens, UniProt P00533); assay: HTRF pEGFR/total EGFR assay in A431 cells (EGF stimulated); type: cell-based; details: compound 2.5 hours then 100 ng/ml EGF 30 mins, ratio pEGFR/total EGFR
T2 construct: endogenous in cells; host or cells: A431
Description: Cells were plated at 20,000 cells per well in 96 well plates and placed at 37° C. 5% CO2. Once adhered (after 24h) cells were treated with compounds dissolved in DMSO at a final concentration of 0.1% DMSO in media. Compounds were diluted in media then added to cells for 2.5 hours in duplicate, 100 ng/ml EGF (ThermoFisher, PHG0311 was is added to all compound treated cells as well as a control for 30 mins. Compound and media were removed from the cells, then 50ul of HTRF lysis bufferwas added (lysis bufferwas diluted from 4× stock to 1× in DI water, with 1% blocking agent also added). Cells were lysed on a plate shaker (2000 rpm) for 30 minutes at room temperature. pEGFR expression was monitored using the Cisbio Phospho-EGFR (Tyr1068) cellular kit (64EG1PEH). Total EGFR expression was monitored using the Cisbio Total EGFR cellular kit (64NG1PEH) as per manufacturer's instructions. Fluorescence emission was read at two different wavelengths (665 nm and 620 nm) on a PheraStar. Results were calculated as ratio of pEGFR/total EGFR and then percentage of OuM control.

[4] = target: CtermHisTag-mEGFR Wild type (Homo sapiens, UniProt P00533); assay: TR-FRET probe displacement assay, EGFR wild type; type: binding; details: EGFR wild type 1.25 nM, probe 100 nM, 30 mins room temperature
Description: as §1

[5] = target: T3, Phospho-EGFR (Tyr1068) in H1975 C797S cells (Homo sapiens, UniProt P00533, C797S/L858R/T790M); assay: HTRF pEGFR/total EGFR assay in H1975 C797S cells; type: cell-based; details: H1975 C797S cells (CRISPR), compound 3 hours, ratio pEGFR/total EGFR
T3 construct: endogenous in cells; host or cells: H1975 C797S (CRISPR-edited in house from ATCC CRL-5908)
Description: H1975 C797S cells (ATCC CRL-5908) were genetically engineered by CRISPR editing of EGFR C797S in house and validated by NGS. Cells were plated at 20,000 cells per well in 96 well plates and placed at 37° C. 5% CO2. Once adhered (after 24h) cells were treated with compounds dissolved in DMSO at a final concentration of 0.1% DMSO in media. Compounds were diluted in media then added to cells for 3 hours in duplicate. Compound and media were removed from the cells, then 50 ul of HTRF lysis buffer was added (lysis buffer was diluted from 4× stock to 1× in DI water, with 1% blocking agent also added). Cells were lysed on a plate shaker (2000 rpm) for 30 minutes at room temperature. pEGFR expression was monitored using the Cisbio Phospho-EGFR (Tyr1068) cellular kit (64EG1PEH). Total EGFR expression was monitored using the Cisbio Total EGFR cellular kit (64NG1PEH) as per manufacturer's instructions. Fluorescence emission was read at two different wavelengths (665 nm and 620 nm) on a PheraStar. Results were calculated as ratio of pEGFR/total EGFR and then percentage of 0 uM control.

T1 sequence (P00533 25-1210 T790M/L858R): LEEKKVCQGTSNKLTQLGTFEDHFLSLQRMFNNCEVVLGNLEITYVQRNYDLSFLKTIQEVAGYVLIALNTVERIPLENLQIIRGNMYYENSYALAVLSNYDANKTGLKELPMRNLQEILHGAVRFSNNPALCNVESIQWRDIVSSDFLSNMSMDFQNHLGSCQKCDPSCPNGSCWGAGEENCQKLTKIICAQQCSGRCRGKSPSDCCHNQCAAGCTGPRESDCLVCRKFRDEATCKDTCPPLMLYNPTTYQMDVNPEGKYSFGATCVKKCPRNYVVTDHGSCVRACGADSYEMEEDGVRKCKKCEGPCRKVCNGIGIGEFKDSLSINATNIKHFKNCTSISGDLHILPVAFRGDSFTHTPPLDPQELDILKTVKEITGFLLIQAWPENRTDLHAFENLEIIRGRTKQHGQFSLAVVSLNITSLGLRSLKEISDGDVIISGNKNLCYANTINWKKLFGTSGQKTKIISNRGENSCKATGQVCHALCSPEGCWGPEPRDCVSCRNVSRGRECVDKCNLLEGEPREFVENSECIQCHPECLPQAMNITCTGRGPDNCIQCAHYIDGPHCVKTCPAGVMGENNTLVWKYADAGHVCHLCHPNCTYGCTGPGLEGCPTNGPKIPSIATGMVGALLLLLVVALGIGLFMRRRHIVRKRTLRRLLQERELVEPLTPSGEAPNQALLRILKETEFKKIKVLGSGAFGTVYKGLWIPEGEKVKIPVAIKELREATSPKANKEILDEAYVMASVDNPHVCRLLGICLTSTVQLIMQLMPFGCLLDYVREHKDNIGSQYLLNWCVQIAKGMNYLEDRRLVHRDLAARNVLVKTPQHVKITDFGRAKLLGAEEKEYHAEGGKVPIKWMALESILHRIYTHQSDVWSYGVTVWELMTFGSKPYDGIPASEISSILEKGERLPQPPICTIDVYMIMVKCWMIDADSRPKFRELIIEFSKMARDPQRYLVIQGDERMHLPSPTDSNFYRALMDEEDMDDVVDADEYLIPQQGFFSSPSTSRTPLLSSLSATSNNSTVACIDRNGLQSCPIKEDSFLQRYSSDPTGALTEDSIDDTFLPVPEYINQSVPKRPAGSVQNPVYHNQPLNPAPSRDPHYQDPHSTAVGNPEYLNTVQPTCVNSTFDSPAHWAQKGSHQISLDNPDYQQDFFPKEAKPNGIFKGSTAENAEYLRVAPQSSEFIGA
Sequence of CtermHisTag-mEGFR Triple Mutant - C797S, L858R, T790M (P00533 25-1210 T790M/C797S/L858R): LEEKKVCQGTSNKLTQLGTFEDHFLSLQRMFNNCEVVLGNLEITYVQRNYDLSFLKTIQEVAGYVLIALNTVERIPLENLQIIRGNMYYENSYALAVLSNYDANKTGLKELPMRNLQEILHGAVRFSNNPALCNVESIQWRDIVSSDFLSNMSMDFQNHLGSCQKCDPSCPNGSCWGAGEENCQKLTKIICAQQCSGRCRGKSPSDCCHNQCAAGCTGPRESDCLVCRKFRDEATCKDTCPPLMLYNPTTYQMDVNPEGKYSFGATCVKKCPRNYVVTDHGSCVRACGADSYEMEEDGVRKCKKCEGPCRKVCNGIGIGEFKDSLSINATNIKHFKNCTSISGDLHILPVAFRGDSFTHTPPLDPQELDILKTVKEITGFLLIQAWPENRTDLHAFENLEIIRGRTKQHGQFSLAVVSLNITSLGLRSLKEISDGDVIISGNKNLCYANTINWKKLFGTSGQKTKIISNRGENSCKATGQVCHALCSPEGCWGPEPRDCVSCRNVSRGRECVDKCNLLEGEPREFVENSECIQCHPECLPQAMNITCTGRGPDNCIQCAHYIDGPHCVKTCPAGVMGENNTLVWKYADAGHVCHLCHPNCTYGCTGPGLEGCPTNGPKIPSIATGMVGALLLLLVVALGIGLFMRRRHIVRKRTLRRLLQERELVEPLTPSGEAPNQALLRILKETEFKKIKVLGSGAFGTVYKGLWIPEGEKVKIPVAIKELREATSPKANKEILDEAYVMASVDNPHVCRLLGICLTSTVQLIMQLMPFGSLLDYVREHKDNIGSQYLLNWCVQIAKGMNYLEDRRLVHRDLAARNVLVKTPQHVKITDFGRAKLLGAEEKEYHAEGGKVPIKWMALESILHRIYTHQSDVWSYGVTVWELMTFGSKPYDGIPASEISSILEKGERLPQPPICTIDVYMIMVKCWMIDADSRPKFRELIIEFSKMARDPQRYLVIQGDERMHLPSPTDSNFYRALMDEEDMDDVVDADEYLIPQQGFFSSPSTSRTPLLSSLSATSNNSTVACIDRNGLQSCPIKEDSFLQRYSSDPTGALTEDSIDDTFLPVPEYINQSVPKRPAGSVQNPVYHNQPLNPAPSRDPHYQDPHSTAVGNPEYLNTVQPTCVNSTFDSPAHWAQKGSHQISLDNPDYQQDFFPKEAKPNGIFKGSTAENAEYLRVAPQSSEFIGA
T3 sequence (P00533 25-1210 T790M/C797S/L858R): as above
T2 sequence (P00533 25-1210): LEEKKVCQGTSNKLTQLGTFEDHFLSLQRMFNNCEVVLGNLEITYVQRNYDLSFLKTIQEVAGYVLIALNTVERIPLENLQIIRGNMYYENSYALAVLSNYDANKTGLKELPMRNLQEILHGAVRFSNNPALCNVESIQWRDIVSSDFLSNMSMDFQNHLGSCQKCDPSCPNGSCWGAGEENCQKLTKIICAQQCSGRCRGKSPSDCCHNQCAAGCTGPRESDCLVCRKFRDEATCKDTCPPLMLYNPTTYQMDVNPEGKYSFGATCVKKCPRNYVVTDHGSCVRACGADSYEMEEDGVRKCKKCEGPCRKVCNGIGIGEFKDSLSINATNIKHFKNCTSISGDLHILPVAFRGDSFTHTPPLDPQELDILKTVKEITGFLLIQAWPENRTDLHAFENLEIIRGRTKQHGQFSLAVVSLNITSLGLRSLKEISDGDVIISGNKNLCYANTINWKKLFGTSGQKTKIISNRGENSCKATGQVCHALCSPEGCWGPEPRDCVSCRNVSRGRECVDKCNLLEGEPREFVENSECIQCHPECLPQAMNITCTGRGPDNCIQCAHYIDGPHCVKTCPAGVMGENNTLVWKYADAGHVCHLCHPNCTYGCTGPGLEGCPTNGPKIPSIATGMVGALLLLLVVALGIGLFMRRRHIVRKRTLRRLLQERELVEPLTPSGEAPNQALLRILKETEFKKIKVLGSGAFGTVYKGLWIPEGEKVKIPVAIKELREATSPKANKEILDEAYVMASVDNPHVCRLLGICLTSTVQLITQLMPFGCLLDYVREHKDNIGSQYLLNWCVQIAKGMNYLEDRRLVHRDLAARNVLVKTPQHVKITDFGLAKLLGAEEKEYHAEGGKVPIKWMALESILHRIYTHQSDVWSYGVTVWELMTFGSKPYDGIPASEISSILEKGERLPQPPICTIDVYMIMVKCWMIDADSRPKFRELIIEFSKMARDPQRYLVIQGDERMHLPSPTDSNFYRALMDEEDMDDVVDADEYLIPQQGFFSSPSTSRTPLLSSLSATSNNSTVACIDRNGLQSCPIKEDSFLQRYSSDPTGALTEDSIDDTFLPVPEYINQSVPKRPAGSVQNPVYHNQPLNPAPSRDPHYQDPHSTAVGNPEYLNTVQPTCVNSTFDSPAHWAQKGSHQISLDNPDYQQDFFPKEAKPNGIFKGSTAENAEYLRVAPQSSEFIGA

IC50 [1] [µM] | IC50 [2] [µM] | IC50 [3] [µM] | IC50 [4] [µM] | IC50 [5] [µM] | Structure (SMILES)
> 3 | 0.1 to 1 | > 3 | > 10 | > 3 | C#Cc1cc(OCc2ccccc2)nc2nc(Nc3ccc(N4CCN(C)CC4)cc3)ncc12 [Example 20, 7-(benzyloxy)-5-ethynyl-N-[4-(4-methylpiperazin-1-yl)phenyl]pyrido[2,3-d]pyrimidin-2-amine]
> 3 | 0.1 to 1 | > 3 | > 10 | > 3 | C#Cc1cc(OCCc2ccccc2)nc2nc(Nc3ccc(N4CCN(C)CC4)cc3)ncc12 [Example 21, 5-ethynyl-N-[4-(4-methylpiperazin-1-yl)phenyl]-7-(2-phenylethoxy)pyrido[2,3-d]pyrimidin-2-amine]
> 3 | 0.1 to 1 | > 3 | > 10 | > 3 | C#Cc1cc(OCCCc2ccccc2)nc2nc(Nc3ccc(N4CCN(C)CC4)cc3)ncc12 [Example 22, 5-ethynyl-N-[4-(4-methylpiperazin-1-yl)phenyl]-7-(3-phenylpropoxy)pyrido[2,3-d]pyrimidin-2-amine]
0.5 to 1 | 0.02 to 0.1 | > 3 | 1 to 10 | 1 to 3 | C#Cc1cc(Nc2nccn2C)nc2nc(Nc3ccc(N4CCN(C)CC4)cc3)ncc12 [Example 26, 5-ethynyl-N^7-(1-methylmidazol-2-yl)-N^2-[4-(4-methylpiperazin-1-yl)phenyl]pyrido[2,3-d]pyrimidine-2,7-diamine]
> 3 | 0.02 to 0.1 | > 3 | 1 to 10 | > 3 | C#Cc1cc(NC(=O)c2ccccc2)nc2nc(Nc3ccc(N4CCN(C)CC4)cc3)ncc12 [Example 29, N-(5-ethynyl-2-{[4-(4-methylpiperazin-1-yl)phenyl]amino}pyrido[2,3-d]pyrimidin-7-yl)benzamide]
1 to 3 | < 0.02 | > 3 | 1 to 10 | 1 to 3 | C#Cc1cc(NC(=O)Cc2ccccc2)nc2nc(Nc3ccc(N4CCN(C)CC4)cc3)ncc12 [Example 30, N-(5-ethynyl-2-{[4-(4-methylpiperazin-1-yl)phenyl]amino}pyrido[2,3-d]pyrimidin-7-yl)-2-phenylacetamide]
1 to 3 | < 0.02 | > 3 | 1 to 10 | 1 to 3 | C#Cc1cc(N2CCCC2=O)nc2nc(Nc3ccc(N4CCN(C)CC4)cc3)ncc12 [Example 31, 1-(5-ethynyl-2-{[4-(4-methylpiperazin-1-yl)phenyl]amino}pyrido[2,3-d]pyrimidin-7-yl)pyrrolidin-2-one]
1 to 3 | < 0.02 | > 3 | 1 to 10 | 1 to 3 | C#Cc1cc(NC(=O)CCc2ccccc2)nc2nc(Nc3ccc(N4CCN(C)CC4)cc3)ncc12 [Example 32, N-(5-ethynyl-2-{[4-(4-methylpiperazin-1-yl)phenyl]amino}pyrido[2,3-d]pyrimidin-7-yl)-3-phenylpropanamide]
1 to 3 | < 0.02 | > 3 | < 1 | > 3 | C#Cc1cc(-n2ccnc2)nc2nc(Nc3ccc(N4CCN(C)CC4)cc3)ncc12 [Example 35, 5-ethynyl-7-(imidazol-1-yl)-N-[4-(4-methylpiperazin-1-yl)phenyl]pyrido[2,3-d]pyrimidin-2-amine]
1 to 3 | < 0.02 | > 3 | 1 to 10 | > 3 | C#Cc1cc(-n2cccc2)nc2nc(Nc3ccc(N4CCN(C)CC4)cc3)ncc12 [Example 36, 5-ethynyl-N-[4-(4-methylpiperazin-1-yl)phenyl]-7-(pyrrol-1-yl)pyrido[2,3-d]pyrimidin-2-amine]

Continued, compound first:

Structure (SMILES) | IC50 [1] [µM] | IC50 [2] [µM] | IC50 [3] [µM] | IC50 [4] [µM] | IC50 [5] [µM]
C#Cc1cc(OC2CCC2)nc2nc(Nc3ccc(N4CCN(C)CC4)cc3)ncc12 [Example 18, 7-cyclobutoxy-5-ethynyl-N-[4-(4-methylpiperazin-1-yl)phenyl]pyrido[2,3-d]pyrimidin-2-amine] | > 3 | 0.02 to 0.1 | > 3 | > 10 | > 3
C#Cc1c(C)c(OCC2CCCC2)nc2nc(Nc3ccc(N4CCN(C)CC4)cc3)ncc12 [Example 23, 7-(cyclopentylmethoxy)-5-ethynyl-6-methyl-N-[4-(4-methylpiperazin-1-yl)phenyl]pyrido[2,3-d]pyrimidin-2-amine] | > 3 | 0.1 to 1 | > 3 | > 10 | > 3
C#Cc1cc(N(C)C)nc2nc(Nc3ccc(N(C)CCN(C)C)cc3)ncc12 [Example 24, N^2-(4-{[2-(dimethylamino)ethyl](methyl)amino}phenyl)-5-ethynyl-N^7,N^7-dimethylpyrido[2,3-d]pyrimidine-2,7-diamine] | > 3 | 1 to 50 | > 3 | > 10 | > 3
C#Cc1cc(Nc2ccccc2)nc2nc(Nc3ccc(N(C)CCN(C)C)cc3)ncc12 [Example 25, N^2-(4-{[2-(dimethylamino)ethyl](methyl)amino}phenyl)-5-ethynyl-N^7-phenylpyrido[2,3-d]pyrimidine-2,7-diamine] | > 3 | 1 to 50 | > 3 | > 10 | > 3
C#Cc1cc(Nc2nccn2C2CCCC2)nc2nc(Nc3ccc(N4CCN(C)CC4)cc3)ncc12 [Example 27, N^7-(1-cyclopentylmidazol-2-yl)-5-ethynyl-N^2-[4-(4-methylpiperazin-1-yl)phenyl]pyrido[2,3-d]pyrimidine-2,7-diamine] | 1 to 3 | 0.02 to 0.1 | > 3 | < 1 | > 3
C#Cc1cc(NC(C)=O)nc2nc(Nc3ccc(N(C)CCN(C)C)cc3)ncc12 [Example 28] | > 3 | < 0.02 | > 3 | > 10 | > 3
C#Cc1cc(NS(C)(=O)=O)nc2c1=CNC(Nc1ccc(N(C)CCN(C)C)cc1)N=2 (stereo not drawn) [Example 33] | > 3 | 0.02 to 0.1 | > 3 | > 10 | > 3
C#Cc1cc(-n2cc(C)cn2)nc2nc(Nc3ccc(N(C)CCN(C)C)cc3)ncc12 [Example 34, N^1-[2-(dimethylamino)ethyl]-N^4-[5-ethynyl-7-(4-methylpyrazol-1-yl)pyrido[2,3-d]pyrimidin-2-yl]-N^1-methylbenzene-1,4-diamine] | > 3 | < 0.02 | > 3 | 1 to 10 | 1 to 3
